These results are taken from ChEMBL document CHEMBL3507680, “University of Dundee, Gates Library screen for HepG2 cell viability”.

The data set in a line: Human HepG2 cell viability assay in 384 well format. The following applies: HepG2 cells, read-out: Inhibition. Type of data set: toxicity, cell-based. More on the design: dose 125 nL, time 70.5 hour; cytotoxicity at 70.5 h: concentration not given beside the values.

In the case of `O=c1[nH]cc(N2CCCCCC2)c(=O)[nH]1`, the cytotoxicity at 70.5 h came to 9.28%.

As for `Cc1nnc2n1CCN(C(C(N)=O)c1ccc(F)cc1)C2` (stereo not drawn), the cytotoxicity at 70.5 h is -16.8%.

Regarding `Cc1nn(Cc2ccc(F)cc2)c2[nH]nc(N)c12`, the cytotoxicity at 70.5 h was -9.36%.

As for `O=C(Nc1ccc(F)c(Br)c1)N1CCCC1`, the cytotoxicity at 70.5 h was -1.36%.

Regarding `Cc1ccc(-c2nnc([C@H]3CCN(C4CCC4)C3)o2)cc1`, the cytotoxicity at 70.5 h stood at 16.3%.

Turning to `COc1ccc(-c2nnc([C@H]3CCN(C4CCC4)C3)o2)cc1`, the cytotoxicity at 70.5 h was -0.264%.

For `CC(C)(C)CN1CC[C@H](c2nnc(Cc3c[nH]c4ccccc34)o2)C1`, the cytotoxicity at 70.5 h amounted to 15.2%.

For the compound `O=C1CO[C@H]2CN(C3CCOCC3)C[C@H]2N1Cc1ccc(F)cc1`, the cytotoxicity at 70.5 h worked out at 16.1%.

For the compound `Fc1cccc(-c2c[nH]c([C@@H]3COCCN3C3CCOCC3)n2)c1`, the cytotoxicity at 70.5 h was -8.23%.

`Cc1ccc2[nH]c([C@H]3CCN(CC4CCCCC4)C3)nc2c1`: the cytotoxicity at 70.5 h came out at 5.77%.

Regarding `Cc1ccc(CNC2(Cc3cc(CC(C)C)on3)COC2)o1`, the cytotoxicity at 70.5 h was 9.27%.

For the compound `CC1(C)[C@H](Cc2cc(CN3CCCCC3)on2)C[C@@H]1NC(=O)C1CC1`, the cytotoxicity at 70.5 h came to 10.2%.

As for `CC[C@H]1CN2CC[C@H]1C[C@@H]2CNCc1cccc(C#N)c1`, the cytotoxicity at 70.5 h was 13%.

Regarding `Cc1ccccc1CN1CC[C@H](c2nnc(-c3cncn3C)o2)C1`, the cytotoxicity at 70.5 h was 1.18%.

Take `c1cncc(-c2nnc([C@H]3CCN(CC4CC4)C3)o2)c1`: the cytotoxicity at 70.5 h stood at 8.27%.

As for `Fc1ccc(OCc2nnc([C@H]3CCN(Cc4ccccn4)C3)o2)cc1`, the cytotoxicity at 70.5 h is -7.48%.

On to `CC(C)N1CC[C@H](c2nnc(Cc3c[nH]c4ccccc34)o2)C1`, for which the cytotoxicity at 70.5 h was -4.41%.

As for `F[C@@H]1CN(Cc2cccnc2)C[C@@H]1OCc1nc2ccccc2[nH]1`, the cytotoxicity at 70.5 h is -3.79%.

`CN1C(=O)CO[C@H](c2ccc(NC(=O)NC(C)(C)C)cc2)[C@H]1CO`: the cytotoxicity at 70.5 h is -0.339%.

Turning to `N#Cc1ccc(CN2C[C@@H](F)[C@@H](OCc3nc4cnccc4[nH]3)C2)cc1`, the cytotoxicity at 70.5 h was -1.95%.

Regarding `COc1ccccc1CN1C[C@@H](F)[C@@H](OCc2nc3cnccc3[nH]2)C1`, the cytotoxicity at 70.5 h was -4.23%.

Take `F[C@@H]1CN(CC2CC2)C[C@@H]1OCc1nc2ccccc2[nH]1`: the cytotoxicity at 70.5 h was 14.4%.

For the compound `Cc1cccc2c1nc1n2[C@@H](CNC(=O)c2ccncc2)COC1`, the cytotoxicity at 70.5 h was -3.38%.

Consider `COc1ccc(CNC[C@H]2COCc3nc4cc(F)ccc4n32)cn1`, for which the cytotoxicity at 70.5 h was -18.3%.

Take `COc1ccc2nc(C[C@@H]3C[C@@H](C(C)C)[C@H](CN)C=C3C)[nH]c2n1`: the cytotoxicity at 70.5 h was -4.84%.

For the compound `CCS(=O)(=O)c1ccc2oc([C@H]3CCN(Cc4ccncc4)C3)nc2c1`, the cytotoxicity at 70.5 h was 6.63%.

Take `COC(=O)[C@H]1CN(C(=O)NC(C)C)CCN1C(=O)c1cccs1`: the cytotoxicity at 70.5 h is -5.45%.

In the case of `O=C(NCc1cccnc1)[C@H]1CN2CCC1C[C@@H]2Cn1cc(CO)nn1` (stereo partly drawn), the cytotoxicity at 70.5 h was -6.61%.

Turning to `Cc1cccc(-c2noc([C@@H]3Cc4nc[nH]c4CN3)n2)c1`, the cytotoxicity at 70.5 h was -3%.

With `CC1=C[C@@H](CN2CCC(CO)CC2)[C@H](C(C)C)C[C@H]1Cc1nnc(C)o1`, the cytotoxicity at 70.5 h is -1.39%.

For `COCCOc1ccnc(-c2noc([C@@H]3CCCN3CC(C)C)n2)c1`, the cytotoxicity at 70.5 h was -5.97%.

For the compound `c1cc(-c2noc([C@@H]3CCCN3C3CCC3)n2)cc(N2CCCC2)n1`, the cytotoxicity at 70.5 h was -6.56%.

For the compound `CC(C)CN1C[C@@H]2OCC(=O)N(c3ccccc3)[C@@H]2C1`, the cytotoxicity at 70.5 h is -15.4%.

In the case of `O=C1CO[C@H]2CN(S(=O)(=O)c3ccccc3)C[C@H]2N1CC1CCCCC1`, the cytotoxicity at 70.5 h is -11.1%.

As to `CC(C)NC(=O)N[C@H]1C[C@@H](c2nc(-c3ccc(F)cc3)no2)N(C)C1`, the cytotoxicity at 70.5 h is -4.13%.

For `Cc1ccc(CN2CC[C@H](c3nc4cccc(C(N)=O)c4[nH]3)C2)cc1`, the cytotoxicity at 70.5 h was determined as 31.1%.

Take `O=C(NC[C@H]1C[C@@H]2CCN1C[C@@H]2CN1CCCC1)c1ccco1`: the cytotoxicity at 70.5 h was -4.55%.

Turning to `Clc1ccc(-c2nnc([C@H]3CCN(C4CCCCC4)C3)o2)cc1`, the cytotoxicity at 70.5 h was -3.54%.

On to `COCc1cc(CC2(NC3CCCCC3)COC2)no1`, for which the cytotoxicity at 70.5 h worked out at 9.57%.

Take `CC1(C)[C@H](Cc2cc(CN3CCOCC3)on2)C[C@@H]1NC(=O)C1CCC1`: the cytotoxicity at 70.5 h was 11.5%.

Take `CN(C)[C@H]1C[C@@H](Cc2cc(CO)on2)C1(C)C`: the cytotoxicity at 70.5 h is -14.4%.

Regarding `COc1ccc(CN[C@@H]2CO[C@H](CNC(=O)N3CCOCC3)[C@H]2O)cc1`, the cytotoxicity at 70.5 h worked out at 2.1%.

On to `CC(C)(C)CC(=O)N[C@@H]1CO[C@H](CNC(=O)c2ccncc2)[C@H]1O`, for which the cytotoxicity at 70.5 h is -2.51%.

With `COCc1cc(C[C@@H]2CC[C@H](O)[C@@H](CN(CC(C)C)CC(C)C)O2)no1`, the cytotoxicity at 70.5 h is -0.301%.

`O=C(NC[C@H]1OC[C@@H](NCc2cccs2)[C@@H]1O)N1CCOCC1`: the cytotoxicity at 70.5 h turned out to be 8.48%.

On to `Cc1ccc(CNC2(Cc3cc(-c4ccccc4)on3)COC2)o1`, for which the cytotoxicity at 70.5 h is -0.988%.

As to `CC(C)CN1CC[C@H](c2nnc(COc3ccc(F)cc3)o2)C1`, the cytotoxicity at 70.5 h was -3.77%.

In the case of `O=C1C[C@@H]2CCN(Cc3ccccc3)C[C@@H]2CCN1c1ccccc1`, the cytotoxicity at 70.5 h was 6.43%.

Turning to `CN1CCOC[C@H]1c1nc(C(C)(C)C)c[nH]1`, the cytotoxicity at 70.5 h came to 11.4%.

Regarding `CN1CCOC[C@H]1c1nc(-c2cccnc2)c[nH]1`, the cytotoxicity at 70.5 h was -7.84%.

`CN(C)[C@@H]1CO[C@H](CNC(=O)Nc2ccccc2)[C@H]1O`: the cytotoxicity at 70.5 h was -1.04%.

On to `O[C@H]1CC[C@@H](Cc2cc(-c3ccc(F)cc3)on2)O[C@@H]1CNCC1CC1`, for which the cytotoxicity at 70.5 h was -5.85%.

On to `CCCN1C(=O)[C@@H]2[C@@H](CCN2C(=O)COC)N(Cc2cccs2)C1=O`, for which the cytotoxicity at 70.5 h is 11.5%.

As to `CC(=O)NC[C@@H]1C=C(C)[C@H](CC(=O)NCCN(C)C)C[C@H]1C(C)C`, the cytotoxicity at 70.5 h was 23.8%.

Regarding `O=C(NCc1ccc(Cl)cc1)[C@@H]1Cc2[nH]cnc2CN1CC1CC1`, the cytotoxicity at 70.5 h is -6.64%.

Regarding `O=C(N[C@@H]1CNCCC[C@H]1O)c1ccc(OCCN2CCCC2)cc1`, the cytotoxicity at 70.5 h was -3.24%.

In the case of `Nc1ncncc1-c1noc([C@@H]2CCCN2Cc2cccnc2)n1`, the cytotoxicity at 70.5 h was -9.55%.

Regarding `O=C1CO[C@H]2CN(S(=O)(=O)c3ccccc3)C[C@H]2N1Cc1ccccn1`, the cytotoxicity at 70.5 h was -15%.

As for `O=C(NC[C@H]1OC[C@@H](NC2COC2)[C@@H]1O)Nc1ccccc1`, the cytotoxicity at 70.5 h is -1.19%.

In the case of `CC(C)NC(=O)O[C@H]1COCCN(c2nc3ccccc3s2)C1`, the cytotoxicity at 70.5 h is -5.43%.

For `COCCO[C@H]1COCCN(C2CCN(C)CC2)C1`, the cytotoxicity at 70.5 h was found to be 12.5%.

Regarding `Cn1nc(CNC(=O)CN2C(=O)CCC2=O)cc1C1CC1`, the cytotoxicity at 70.5 h amounted to 1.45%.

`Cn1nc(CNC(=O)C2CCN(S(C)(=O)=O)CC2)cc1C1CC1`: the cytotoxicity at 70.5 h was -3.55%.

Take `O=C(NCc1cc(C2CC2)n(C2CCCC2)n1)C1CC1`: the cytotoxicity at 70.5 h was -9.71%.

Take `CCOCC(=O)NCc1cc(C2CC2)n(C2CCCC2)n1`: the cytotoxicity at 70.5 h amounted to 0.0223%.

As to `COc1ccc(S(=O)(=O)C2CCN(C(=O)c3cc(C)cs3)CC2)cc1`, the cytotoxicity at 70.5 h was found to be 1.95%.

As to `Cn1cnnc1S(=O)(=O)C1CCN(C(=O)c2ccco2)CC1`, the cytotoxicity at 70.5 h stood at 10.3%.

Consider `O=C(CCc1ccccc1Br)N1CC(S(=O)(=O)C2CCCCC2)C1`, for which the cytotoxicity at 70.5 h was -5.63%.

Regarding `O=C(c1ccco1)N1CC(S(=O)(=O)c2ccc(Cl)cc2)C1`, the cytotoxicity at 70.5 h was -10.1%.

For `O=C(NC1CCN(c2nccs2)CC1)c1cccs1`, the cytotoxicity at 70.5 h was 10.5%.

`Cc1cccc(CC(=O)Nc2cnn(C3CCOC3)c2)c1` (stereo not drawn): the cytotoxicity at 70.5 h is -13.6%.

`COC(CNC(=O)C1CCCC1)c1ccc(C)s1` (stereo not drawn): the cytotoxicity at 70.5 h was -1.8%.

Turning to `COC(CNC(=O)c1cc(C)on1)c1ccccc1C` (stereo not drawn), the cytotoxicity at 70.5 h was -2.28%.

For `CCC(CNC(=O)OC)(OC)c1ccccc1` (stereo not drawn), the cytotoxicity at 70.5 h is -0.855%.

For the compound `O=C(Nc1ccccc1)C1CCCN(c2cc(-n3cncn3)ncn2)C1` (stereo not drawn), the cytotoxicity at 70.5 h is -1.76%.

Regarding `O=C(CN1CCOCC1)Nc1ccc(C(F)(F)F)cc1Cl`, the cytotoxicity at 70.5 h turned out to be 14.6%.

Turning to `CCOC(=O)N1CCNC(c2cccs2)C1` (stereo not drawn), the cytotoxicity at 70.5 h turned out to be 21.8%.

With `NCc1cnc(Nc2ccccc2)nc1`, the cytotoxicity at 70.5 h is -17.3%.

For `CNCc1cnc(Nc2ccccc2)nc1`, the cytotoxicity at 70.5 h is -5.59%.

On to `COCC(=O)N1CCC2(CCC(C(=O)N3CCCC3)O2)CC1` (stereo not drawn), for which the cytotoxicity at 70.5 h amounted to 10.4%.

For the compound `CCN1C(=O)CCC12CCN(S(=O)(=O)c1ccc(C#N)cc1)CC2`, the cytotoxicity at 70.5 h came out at 15.5%.

Regarding `CCN1C[C@H]2CCN(C(=O)Nc3ccccc3C)CC[C@H]2S1(=O)=O`, the cytotoxicity at 70.5 h was 15.6%.

For `Cc1ccccc1NC(=O)N1CC[C@@H]2CN(CC(C)C)S(=O)(=O)[C@@H]2CC1`, the cytotoxicity at 70.5 h is -9.9%.

For `CCS(=O)(=O)N1CCC2(CCCC(=O)N2C)CC1`, the cytotoxicity at 70.5 h was -11%.

For the compound `CCN1C(=O)CC[C@]12CC[C@@H](NC(=O)c1cc(C)on1)CC2`, the cytotoxicity at 70.5 h is -7.54%.

On to `COC(C(=O)N1CCN(c2cccc(Cl)c2)C(=O)C1)c1ccccc1` (stereo not drawn), for which the cytotoxicity at 70.5 h was -7.64%.

For `Cc1ccccc1CSc1nc(N)cc(N2CC[C@@H](O)C2)n1`, the cytotoxicity at 70.5 h is -6.37%.

On to `Cc1nc(CN2CCCC2c2nc(C(C)C)no2)cs1` (stereo not drawn), for which the cytotoxicity at 70.5 h was -2.96%.

For the compound `Cc1nc(N2CCN(C)CC2)ncc1C(=O)N1CC(C)(C)C(C)(O)C1` (stereo not drawn), the cytotoxicity at 70.5 h turned out to be 14.1%.

`CN(C)CCNC(=O)c1ccc(OC2CCN(S(C)(=O)=O)CC2)c(Cl)c1`: the cytotoxicity at 70.5 h was -9.41%.

With `Cc1ccc(F)cc1C(=O)N1C[C@@H](CN2CCOCC2)[C@@H](CO)C1`, the cytotoxicity at 70.5 h is -6.59%.

On to `C[C@@H]1CN(C2(C(=O)N3CCOCC3)Cc3ccccc3C2)C[C@H](C)O1`, for which the cytotoxicity at 70.5 h worked out at 2.82%.

As for `O=C(C1CCC2(CCN(CC3CC3)CC2)O1)N1CCCC1` (stereo not drawn), the cytotoxicity at 70.5 h is -7.11%.
